Consider 13 compounds from ChEMBL document CHEMBL1145250, “Discovery of 4-(dimethylamino)quinazolines as potent and selective antagonists for the melanin-concentrating hormone receptor 1” (Bioorg Med Chem Lett, 2005).

In assay [1] the target is T1, Neuropeptide Y receptor type 5 (Homo sapiens, UniProt Q15761).
T1 sequence (Q15761 whole entry): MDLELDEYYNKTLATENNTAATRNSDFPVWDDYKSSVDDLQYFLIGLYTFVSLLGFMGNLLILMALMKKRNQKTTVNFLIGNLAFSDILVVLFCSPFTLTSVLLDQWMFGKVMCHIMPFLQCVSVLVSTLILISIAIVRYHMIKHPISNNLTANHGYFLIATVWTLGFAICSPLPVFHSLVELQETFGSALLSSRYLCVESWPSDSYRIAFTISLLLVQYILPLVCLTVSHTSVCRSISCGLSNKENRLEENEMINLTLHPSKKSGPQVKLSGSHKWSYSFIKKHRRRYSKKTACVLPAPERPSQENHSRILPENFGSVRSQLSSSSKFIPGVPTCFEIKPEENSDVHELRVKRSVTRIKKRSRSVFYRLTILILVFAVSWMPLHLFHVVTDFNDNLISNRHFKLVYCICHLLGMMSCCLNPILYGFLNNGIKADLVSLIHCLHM
The experiment in a line: Inhibitory activity against constitutively activated human Neuropeptide Y receptor Y5 transiently expressed in COS-1 cells using [125I]PYY. The format is cell-based.

Assay [2] deals with Alpha-2A adrenergic receptor (Homo sapiens, UniProt P08913). The assay is described as follows: Inhibitory activity against constitutively activated human Alpha-2A adrenergic receptor transiently expressed in COS-1 cells using [3H]MK-912. The format is cell-based.
Assay [3] addresses T2, Melanin-concentrating hormone receptor 1 (Homo sapiens, UniProt Q99705). The assay is described as follows: Inhibitory activity against mutated constitutively activated human Melanin concentrating hormone receptor 1 (CA-MCH-R1) stably expressed in HEK293 cells using [125I](Phe13, Tyr19) MCH. In kind it is cell-based.
Target sequence in this assay (Q99705 whole entry, looked up): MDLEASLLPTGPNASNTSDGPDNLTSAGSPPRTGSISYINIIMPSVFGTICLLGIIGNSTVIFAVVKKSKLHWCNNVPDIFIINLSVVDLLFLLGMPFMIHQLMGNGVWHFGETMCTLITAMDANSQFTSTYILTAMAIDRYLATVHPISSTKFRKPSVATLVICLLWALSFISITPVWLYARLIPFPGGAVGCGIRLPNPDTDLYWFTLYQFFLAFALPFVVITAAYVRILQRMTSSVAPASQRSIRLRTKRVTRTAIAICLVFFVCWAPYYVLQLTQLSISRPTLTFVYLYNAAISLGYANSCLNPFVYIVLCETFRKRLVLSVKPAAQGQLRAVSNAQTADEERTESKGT
Assay [4] has as its target T2, Melanin-concentrating hormone receptor 1. The assay is described as follows: Inhibitory activity against human constitutively activated Melanin concentrating hormone receptor 1 induced calcium flux stably expressed in HEK293 cells (n=6).
Target sequence in this assay (Q99705 whole entry): as the sequence (Q99705 whole entry, looked up) above
Assay [5] has the same target. The experiment in a line: Inhibitory activity against human wild type Melanin concentrating hormone receptor 1 (CA-MCH-R1) stably expressed in HEK293 cells using [125I](Phe13, Tyr19) MCH (n=3). In kind it is cell-based.
Target sequence in this assay (Q99705 whole entry): as the sequence (Q99705 whole entry, looked up) above
The target is the same in assay [6]. The assay is described as follows: Inhibitory activity against mutated constitutively activated human Melanin concentrating hormone receptor 1 (CA-MCH-R1) stably expressed in HEK293 cells using [125I](Phe13, Tyr19) MCH (n=8). The format is cell-based.
Target sequence in this assay (Q99705 whole entry, looked up): as above

Chain of Alpha-2A adrenergic receptor (P08913 whole entry, looked up): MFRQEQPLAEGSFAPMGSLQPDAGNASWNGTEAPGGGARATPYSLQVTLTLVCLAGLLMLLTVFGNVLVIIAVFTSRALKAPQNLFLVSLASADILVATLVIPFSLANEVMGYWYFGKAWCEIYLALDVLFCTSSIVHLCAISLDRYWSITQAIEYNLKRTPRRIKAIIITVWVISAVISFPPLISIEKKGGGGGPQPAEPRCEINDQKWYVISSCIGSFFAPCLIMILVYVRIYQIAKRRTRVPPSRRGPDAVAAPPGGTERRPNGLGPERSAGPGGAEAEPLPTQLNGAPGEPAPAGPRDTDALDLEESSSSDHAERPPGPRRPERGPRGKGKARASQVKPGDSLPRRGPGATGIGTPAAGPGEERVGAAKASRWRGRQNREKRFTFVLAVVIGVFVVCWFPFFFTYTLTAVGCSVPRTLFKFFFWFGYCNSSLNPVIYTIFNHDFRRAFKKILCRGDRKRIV

As for `CN(C)c1nc(NCC2CCN(S(=O)(=O)c3ccc(Br)cc3OC(F)(F)F)CC2)nc2ccccc12`, the results for the IC50 in assay [1], in assay [2] and in assay [3] were 3 µM, 0.0056 µM and 6 µM, respectively.
Take `CN(C)c1nc(NC2CCC(CNS(=O)(=O)c3ccc(Br)cc3OC(F)(F)F)CC2)nc2ccccc12` (stereo not given): the values for the IC50 in assay [1], in assay [2] and in assay [3] were 0.15 µM, 0.11 µM and 1.5 µM, respectively.
`CN(C)c1nc(NCC2CCC(CNS(C)(=O)=O)CC2)nc2ccccc12` (stereo not given): the IC50 in assay [1] is 0.041 µM; in assay [2], 0.086 µM; in assay [3], > 10 µM.
`CN(C)c1nc(NC2CCN(S(=O)(=O)c3ccc(Br)cc3OC(F)(F)F)CC2)nc2ccccc12`: the results for the IC50 in assay [1], in assay [2] and in assay [3] were 8.9 µM, 0.17 µM and 0.25 µM, respectively.
As for `Nc1nc(NCC2CCC(CNS(=O)(=O)c3ccc(Br)cc3OC(F)(F)F)CC2)nc2ccccc12` (trans isomer), the results for the IC50 in assay [1], in assay [2] and in assay [3] were 0.0016 µM, 0.1 µM and 1.9 µM, respectively.
Take `CN(C)c1nc(NCC2CCC(CNS(=O)(=O)c3ccc(Br)cc3OC(F)(F)F)CC2)nc2ccccc12` (trans isomer): the IC50 amounted to 0.0027 µM in assay [1]; 0.14 µM in assay [4]; 0.2 µM in assay [5]; 0.0077 µM in assay [2]; 0.16 µM in assay [6].
In the case of `CCCCS(=O)(=O)NCC1CCC(CNc2nc(N(C)C)c3ccccc3n2)CC1` (trans isomer), the IC50 was determined as 0.0049 µM in assay [1], 0.058 µM in assay [2] and 2.9 µM in assay [3].
For the compound `CN(C)c1nc(NC2CCC(NS(=O)(=O)c3ccc(Br)cc3OC(F)(F)F)CC2)nc2ccccc12` (trans isomer), the IC50 is 0.031 µM in assay [1], 0.047 µM in assay [2] and 2.2 µM in assay [3].
Turning to `CN(C)c1nc(NCC2CCC(NS(=O)(=O)c3ccc(Br)cc3OC(F)(F)F)CC2)nc2ccccc12` (trans isomer), the IC50 in assay [1] turned out to be 0.0025 µM; in assay [2], 0.021 µM; in assay [3], 0.81 µM.
Regarding `CCCCCCCCS(=O)(=O)NCC1CCC(CNc2nc(N(C)C)c3ccccc3n2)CC1` (trans isomer), in assay [3], the IC50 was 6.7 µM.
Consider `O=S(=O)(NCC1CCC(CNc2ncc3ccccc3n2)CC1)c1ccc(Br)cc1OC(F)(F)F` (trans isomer), for which the values for the IC50 in assay [1], in assay [2] and in assay [3] were 0.078 µM, 0.14 µM and > 10 µM, respectively.
As for `CC(C)S(=O)(=O)NCC1CCC(CNc2nc(N(C)C)c3ccccc3n2)CC1` (trans isomer), the IC50 in assay [3] was > 10 µM.
In the case of `Nc1nc(NC[C@H]2CC[C@H](CNS(=O)(=O)c3cccc4ccccc34)CC2)nc2ccccc12` [CGP-71683A], half-maximal inhibition in assay [3] (IC50) was put at 3.5 µM.

What is called IC50 is the concentration that gives 50% inhibition.
